This passage reports melting point and pest or weed control results from patent US9144239B2, “Macrocyclic picolinamides as fungicides” (DOW AGROSCIENCES LLC, priority 2012, dated 2015).

In series [1] the test system is Mycosphaerella graminicola; anamorph: Septoria tritici. Briefly: Fungicidal activity: leaf blotch of wheat (SEPTTR), wheat seedlings. Format: in vivo. Conditions: Zymoseptoria tritici, 100 ppm, wheat. The gist of the method:
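Percent control derives from disease severity on treated versus untreated first leaves, rated 0–100% when symptoms were fully expressed on untreated plants. Yuma seedlings were inoculated with S. tritici spores either before or after spraying to run-off. The spray was acetone solution diluted 1:9 in water with 110 ppm Triton X-100. Infection took place in 100% RH dew chambers, then a 20 °C greenhouse.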

Series [2] concerns Puccinia triticina; synonym: Puccinia recondita f. sp. tritici. Description: Fungicidal activity: wheat brown rust (PUCCRT), wheat seedlings. Format: in vivo. The note with it: 100 ppm, wheat. In outline: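 Wheat (Yuma) seedlings at first-leaf stage, inoculated with Puccinia triticina spores before or after treatment, held overnight in dark dew room at 22° C, 100% RH, then greenhouse at 24° C. Acetone solutions diluted with nine volumes water containing 110 ppm Triton X-100, sprayed to run-off. Percent disease control derived from severity (0–100%) relative to untreated plants.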

For series [3] the test system is unchanged. Briefly: Fungicide mobility (dropline mobility test): wheat brown rust (PUCCRT). Type of series: in vivo. Conditions: 1 ug/leaf. Here is the method: Evaluation of Fungicide Mobility: Wheat Brown Rust (Puccinia triticina; Synonym: Puccinia recondita f. sp. tritici; Bayer Code PUCCRT) “Yuma” wheat seedlings were used in the test. One mg of compound was dissolved in 9 μl of EC blank (emulsifiable concentrate) and 500 μl of acetone. Acetone was then evaporated overnight by leaving the vial open in a fume hood. Two milliliters of water containing 110 ppm Triton X-100 was added to each vial to prepare application solutions. A 2 μl drop of formulated material was applied to a marked line on the adaxial surface 5 cm from the leaf tip of the primary leaves. The primary leaves were kept in a horizontal position. Each treatment had 6 replicates. Plants were inoculated with PUCCRT 1-day after (1DPM) or 3-day prior to (3DCM) compound applications. When rust was fully expressed on primary leaves on control plants, the zone of treated leaves that was disease-free in the acropetal direction was measured with a ruler and converted to percent of the distance from marked line to leaf tip.

Setting [4] is: 24 h, 1 Day Protectant, read-out: Disease Control SEPTTR 1DP.
[5] abbreviates: 72 h, 3 Day Curative, read-out: Disease Control SEPTTR 3DC.
[6] abbreviates: 24 h, 1 Day Protectant, read-out: Disease Control PUCCRT 1DP.
Where [7] appears, read: 72 h, 3 Day Curative, read-out: Disease Control PUCCRT 3DC.
[8] abbreviates: 24 h, 1 Day Protectant Mobility, read-out: Dropline Mobility Test PUCCRT 1DPM.
The mark [9] stands for this setting: 72 h, 3 Day Curative Mobility, read-out: Dropline Mobility Test PUCCRT 3DCM.

Molecules are shown by their SMILES. Where two headings read alike, the source gives them in different places.

What is called melting point is the temperature of the solid-liquid transition.

On to `CCCCO[C@H]1COC[C@H](NC(=O)OC(C)(C)C)C(=O)O[C@@H](C)[C@@H]1OC(=O)C(C)C` [Compound 113, (3S,6S,7S,8S)-8-butoxy-3-((tert-butoxycarbonyl)amino)-6-methyl-4-oxo-1,5-dioxonan-7-yl isobutyrate], for which the melting point was in the range of 69 to 71 °C.

Consider `CCCCO[C@H]1COC[C@H](N)C(=O)O[C@@H](C)[C@@H]1OCc1ccccc1.Cl`, for which the melting point was 174 to 177 °C.

Consider `CC[C@@H]1OC(=O)[C@@H](NC(=O)c2nccc(OC)c2O)COC[C@H](OCC(C)C)[C@H]1OCC(C)C` [Compound 21, N-((3S,7S,8S,9S)-9-ethyl-7,8-diisobutoxy-2-oxo-1,5-dioxonan-3-yl)-3-hydroxy-4-methoxypicolinamide], for which the melting point lay in the range of 119 to 121 °C. In series [1] (setting [4]), the pest or weed control at 100 ppm was 80 to 100%. Besides, in series [1] (setting [5]), the pest or weed control at 100 ppm was in the range of 0 to 80%. Moreover, the pest or weed control at 100 ppm in series [2] (setting [6]) lay in the range of 80 to 100%. The pest or weed control at 100 ppm in series [2] (setting [7]) lay in the range of 80 to 100%.

Consider `C[C@@H]1OC(=O)[C@@H](NC(=O)OC(C)(C)C)COC[C@H](OCc2ccccc2)[C@H]1OCc1ccccc1` [Compound 93, tert-butyl ((3S,7S,8S,9S)-7,8-bis(benzyloxy)-9-methyl-2-oxo-1,5-dioxonan-3-yl)carbamate], for which the melting point lay within 69 to 71 °C.

On to `C=C(C)CO[C@H]1[C@H](C)OC[C@H](NC(=O)OCc2ccccc2)C(=O)OC[C@@H]1OCC(=C)C` [Compound 127], for which the melting point lay within 79 to 81 °C.

Compound `Cc1cc(C)cc(O[C@H]2[C@H](C)OC(=O)[C@@H](N)COC[C@@H]2Oc2cc(C)cc(C)c2)c1.Cl` had a melting point of 212 °C.

Consider `CC(C)CO[C@H]1[C@H](C)OC(=O)[C@@H](N)COC[C@@H]1Oc1ccc(F)cc1.Cl`, for which the melting point was 197 to 200 °C.

As to `C=C(C)CO[C@H]1[C@H](C)OC(=O)[C@@H](NC(=O)OCc2ccccc2)COC[C@@H]1OCC(=C)C` [Compound 126, benzyl (3S,7S,8S,9S)-9-methyl-7,8-bis(2-methylallyloxy)-2-oxo-1,5-dioxonan-3-ylcarbamate], the melting point was in the range of 90 to 91 °C.

In turn, `C[C@@H]1OC(=O)[C@@H](N(C(=O)OC(C)(C)C)C(=O)OC(C)(C)C)COC[C@H](O)[C@H]1Oc1ccccc1` [Compound 249] returned a melting point of 110 to 112 °C.

`COc1ccnc(C(=O)N[C@H]2COC[C@H](OCCC(C)C)[C@@H](OCCC(C)C)[C@H](C)OC2=O)c1O` [Compound 210, N-((3S,7S,8S,9S)-7,8-bis(isopentyloxy)-9-methyl-2-oxo-1,5-dioxonan-3-yl)-3-hydroxy-4-methoxypicolinamide] registered a melting point of 61 to 70 °C.

Take `C=C(C)CO[C@@H]1[C@@H](OCC(=C)C)COC[C@H](NC(=O)OCc2ccccc2)C(=O)O[C@H]1CC` [Compound 88, benzyl ((3S,7S,8S,9S)-9-ethyl-7,8-bis((2-methylallyl)oxy)-2-oxo-1,5-dioxonan-3-yl)carbamate]: the melting point fell in the range of 108 to 110 °C.

Compound `COc1ccc(O[C@H]2[C@H](C)OC(=O)[C@@H](N)COC[C@@H]2OC(=O)C(C)C)cc1.Cl` had a melting point of 207 to 208 °C.

In turn, `CCCCO[C@H]1[C@H](C)OC(=O)[C@@H](NC(=O)OC(C)(C)C)COC[C@@H]1OCc1ccccc1` [Compound 99] showed a melting point of 51 to 54 °C.

For the compound `COCCC(=O)Oc1c(OC)ccnc1C(=O)N[C@H]1COC[C@H](OCC(C)C)[C@@H](OCC(C)C)[C@H](C)OC1=O` [Compound 237, 2-(((3S,7S,8S,9S)-7,8-diisobutoxy-9-methyl-2-oxo-1,5-dioxonan-3-yl)carbamoyl)-4-methoxypyridin-3-yl 3-methoxypropanoate], the pest or weed control at 100 ppm in series [1] (setting [4]), in series [1] (setting [5]), in series [2] (setting [6]) and in series [2] (setting [7]) was 80 to 100% in each case. Besides, the pest or weed control at 1 µg/leaf in series [3] (setting [8]) and in series [3] (setting [9]) was 80 to 100% in each case.

For the compound `COc1ccnc(C(=O)N[C@H]2COC[C@H](Oc3ccccc3)[C@@H](Oc3ccccc3)[C@H](C)OC2=O)c1OCOC(=O)C(C)C` [Compound 234], the pest or weed control at 100 ppm in series [1] (setting [4]), in series [1] (setting [5]), in series [2] (setting [6]) and in series [2] (setting [7]) was 80 to 100% throughout. In addition, the pest or weed control at 1 µg/leaf in series [3] (setting [8]) lay in the range of 80 to 100%.

For `COc1ccnc(C(=O)N[C@H]2COC[C@H](OCC(C)C)[C@@H](OCC(C)C)[C@H](C)OC2=O)c1OC(C)=O` [Compound 238], the pest or weed control at 100 ppm in series [1] (setting [4]), in series [1] (setting [5]), in series [2] (setting [6]) and in series [2] (setting [7]) was 80 to 100% in each case. Moreover, the pest or weed control at 1 µg/leaf in series [3] (setting [8]) and in series [3] (setting [9]) was 80 to 100% throughout.

As for `Cc1ccc(O[C@H]2[C@H](C)OC(=O)[C@@H](N)COC[C@@H]2Oc2ccc(C)cc2)cc1.Cl`, the melting point was in the range of 213 to 216 °C.

In the case of `CCCCCO[C@H]1[C@H](C)OC(=O)[C@@H](NC(=O)c2nccc(OC)c2OCOC(C)=O)COC[C@@H]1OCCCCC` [Compound 64], the pest or weed control at 100 ppm in series [1] (setting [4]), in series [1] (setting [5]), in series [2] (setting [6]) and in series [2] (setting [7]) was 80 to 100% each time. In addition, the pest or weed control at 1 µg/leaf in series [3] (setting [8]) and in series [3] (setting [9]) was 0 to 80% each time.

As for `C[C@@H]1OC(=O)[C@@H](N)COC[C@H](Oc2ccccc2)[C@H]1OC1CCCC1.Cl`, the melting point lay within 217 to 219 °C.

In turn, `CC(C)CO[C@H]1[C@H](C)OC(=O)[C@@H](N(C(=O)OC(C)(C)C)C(=O)OC(C)(C)C)COC[C@@H]1Oc1ccc(F)cc1` [Compound 246] gave a melting point of 108 °C.

As for `CC(C)CO[C@H]1[C@H](C)OC(=O)[C@@H](N)COC[C@@H]1OCC(C)C` [Compound 160, (3S,7S,8S,9S)-3-amino-7,8-diisobutoxy-9-methyl-1,5-dioxonan-2-one], the melting point lay within 144 to 146 °C.

In the case of `COc1ccc(O[C@H]2COC[C@H](N)C(=O)O[C@@H](C)[C@@H]2OC(=O)C(C)C)cc1.Cl`, the melting point lay in the range of 197 to 198 °C.

The compound `C[C@@H]1OC(=O)[C@@H](N)COC[C@H](OCC2CC2)[C@H]1OCC1CC1.Cl` yielded a melting point of 181 to 185 °C.

In turn, `CC(C)CO[C@H]1COC[C@H](N)C(=O)O[C@@H](C)[C@@H]1Oc1cccc(Cl)c1.Cl` returned a melting point of 168 to 169 °C.

`C[C@@H]1OC(=O)[C@@H](N)COC[C@H](Oc2ccccc2)[C@H]1Oc1ccccc1.Cl` registered a melting point of 227 to 229 °C.

`C=C(C)CO[C@H]1COC[C@H](NC(=O)OCc2ccccc2)C(=O)OC[C@@H]1OCC(=C)C` [Compound 186]: the melting point was 66 to 68 °C.

As to `COc1ccnc(C(=O)N[C@H]2COC[C@H](OCC(C)C)[C@@H](OC3CCCCC3)[C@H](C)OC2=O)c1O` [Compound 75], the pest or weed control at 100 ppm was 80 to 100% in series [1] (setting [4]), 0 to 80% in series [1] (setting [5]), 80 to 100% in series [2] (setting [6]) and 80 to 100% in series [2] (setting [7]). Also, the pest or weed control at 1 µg/leaf in series [3] (setting [8]) and in series [3] (setting [9]) was 0 to 80% in each case.

Take `CCCCO[C@H]1COC[C@H](NC(=O)c2nccc(OC)c2OCOC(C)=O)C(=O)O[C@@H](C)[C@@H]1OC(=O)c1ccccc1` [Compound 69]: the pest or weed control at 100 ppm in series [1] (setting [4]), in series [1] (setting [5]), in series [2] (setting [6]) and in series [2] (setting [7]) was 80 to 100% in each case. Besides, the pest or weed control at 1 µg/leaf in series [3] (setting [8]) and in series [3] (setting [9]) was 0 to 80% throughout.

Regarding `CCCO[C@H]1[C@H](C)OC(=O)[C@@H](N)COC[C@@H]1Oc1ccccc1.Cl`, the melting point is 217 to 219 °C.

As to `CCCO[C@H]1[C@H](C)OC(=O)[C@@H](NC(=O)c2nccc(OC)c2OCOC(C)=O)COC[C@@H]1OCCC` [Compound 61], the pest or weed control at 100 ppm in series [1] (setting [4]), in series [1] (setting [5]), in series [2] (setting [6]) and in series [2] (setting [7]) was 80 to 100% in each case. In addition, the results for the pest or weed control at 1 µg/leaf in series [3] (setting [8]) and in series [3] (setting [9]) were 80 to 100% and 0 to 80%, respectively.

As to `COc1ccnc(C(=O)N[C@H]2COC[C@H](OCCCC(F)(F)F)[C@@H](OCCCC(F)(F)F)[C@H](C)OC2=O)c1O` [Compound 67], the pest or weed control at 100 ppm in series [1] (setting [4]) was 0 to 80%; in series [1] (setting [5]) it was 0 to 80%; in series [2] (setting [6]) it was 80 to 100%; in series [2] (setting [7]), 0 to 80%. In addition, the pest or weed control at 1 µg/leaf in series [3] (setting [8]) and in series [3] (setting [9]) was 0 to 80% each time.
